The results in this text go back to paper PMC5851678, “Phosphorylation decelerates conformational dynamics in bacterial translation elongation factors” (Science Advances, 2018).

Experiment in all cases: ITC
A general note: In ITC the heat of successive injections is recorded.

Assay [1] addresses T1, pEF-TuT382.
T1 construct: gene tufA; full-length His-tagged EF-Tu phosphorylated at T382 in vitro by toxin Doc with ATP, repurified by SEC
Details: species or system Escherichia coli. Particulars: 50 mM Hepes pH 7.4, 40 mM NH4Cl, 2 mM MgCl2, 1 mM TCEP; phosphorylated at T382.

Assay [2] deals with T2, EF-Tu.
T2 construct: gene tufA; full-length, His-tagged (pET-His-EF-Tu), expressed in E. coli BL21(DE3), nucleotide-free, unphosphorylated
Details: species or system Escherichia coli. Particulars: 50 mM Hepes pH 7.4, 40 mM NH4Cl, 2 mM MgCl2, 1 mM TCEP. The source says:
ITC on EF-Tu | consistent with the affinities measured with GDPNP

For assay [3], the target named is T1, pEF-TuT382. In kind it is binding, Escherichia coli. The following applies: 50 mM Hepes pH 7.4, 40 mM NH4Cl, 2 mM MgCl2, 1 mM TCEP, nucleotide-free protein, phosphorylated at T382.
The target in assay [4] is T2, EF-Tu. In kind it is binding, Escherichia coli. Particulars: 20 °C, 50 mM Hepes pH 7.4, 40 mM NH4Cl, 2 mM MgCl2, 1 mM TCEP, nucleotide-free protein; read-out: affinity.

Structures are written as SMILES. Like-named read-outs stand apart in the source and are kept apart here.

Regarding `Nc1nc2c(ncn2[C@@H]2O[C@H](COP(=O)(O)OP(=O)(O)NP(=O)(O)O)[C@@H](O)[C@H]2O)c(=O)[nH]1` [GDPNP, 5′-guanylyl imidodiphosphate], the Kd amounted to 320 ± 1 nM at pEF-TuT382 [1] and 128 ± 8 nM at EF-Tu [2].
Take `Nc1nc2c(ncn2[C@@H]2O[C@H](COP(=O)(O)OP(=O)(O)OP(O)(O)=S)[C@@H](O)[C@H]2O)c(=O)[nH]1` [GTPγS, guanosine-5′-(γ-thio)-triphosphate]: the Kd at pEF-TuT382 [3] (read-out: Kd) came to 90 nM; at EF-Tu [4] it was 81 nM.
In the case of `Nc1nc2c(ncn2[C@@H]2O[C@H](COP(=O)(O)OP(=O)(O)O)[C@@H](O)[C@H]2O)c(=O)[nH]1` [GDP], the Kd on pEF-TuT382 [3] (read-out: affinity) amounted to 5.7 nM; on EF-Tu [4] it was 4.5 nM.
